In patent US8552048B2, “Phosphoramidate alkylator prodrugs for the treatment of cancer” (Threshold Pharmaceuticals, Inc., priority 2006, dated 2013):
“Also recorded” adds a separate entry of the source. Read-outs that look alike come from different tables or passages of the source.

What was measured:
[1] = system: H460 xenograft tumor; experiment: H460 xenograft, TH302 in combination with X-ray radiation; assay type: in vivo, mice; conditions: X-ray 1.2 Gy/day for 5 days with TH302 ip 75 mg/kg per day for 5 days, 30 min after each radiation dose; 75 mg/kg/day
Experimental: H460 xenograft tumor bearing mice were treated with X-ray radiation (one cycle of 1.2 Gy/day for 5 days) alone and in combination with TH302 (administered ip, 75 mg/kg per day for 5 consecutive days 30 min after each radiation dose). […] The oxygen radicals involved in killing tumor cells, and which are generated by irradiation of oxygen e.g. under normoxic conditions, can not form efficiently under hypoxic conditions.

[2] = Pharmacokinetics in Sprague-Dawley rats (single dose i.v. and p.o.); assay type: in vivo, male Sprague-Dawley rats; conditions: male, Sprague-Dawley, rat, rats; for Vd: read-out: Vss; for AUC(0-t): read-out: AUC(0-t); for Cmax: read-out: Cmax; for MRT: read-out: MRT
Experimental: Pharmacokinetic studies were performed in male CD-1 (50 mg/kg i.p. or orally (p.o.)) or female nude mice (50 mg/kg i.v. or i.p.), male Sprague-Dawley rats (1, 5, 20 and 50 mg/kg i.v. and 100 mg/kg, p.o.), beagle dogs (20 mg/kg, i.v.) and cynomologus monkeys (20 mg/kg i.v.). Plasma TH302 concentrations were analyzed using a LC/MS method and the pharmacokinetic parameters computed using a noncompartmental method. Interspecies scaling was performed according to standard methods.
TH302 was dissolved in 50% PEG400/Saline to obtain a final concentration of 25 mg/mL, and then was further diluted to yield 25, 10, 2.5 and 0.5 mg/mL formulations of TH302 (pH The formulations were prepared just before dosing. The concentration of TH302 in dosing solution was confirmed by HPLC-UV. Male Sprague Dawley rats (body weight: 200 g to 230 g) were used in this study. Before the pharmacokinetic studies, animals were randomly assigned to four treatment groups cannulated in the carotid artery for serial blood sampling. All rats were administered a single intravenous bolus dose over one minute via the tail vein. The concentrations of TH302 in plasma were determined using a high performance liquid chromatography/mass spectrometry (HPLC/MS/MS) method. […]

[3] = plasma, iv, 1 mg/kg, 1 mg/kg i.v. bolus, MEAN
[4] = plasma, iv, 1 mg/kg, 1 mg/kg i.v. bolus, individual animals
[5] = plasma, iv, 5 mg/kg, 5 mg/kg i.v. bolus, MEAN
[6] = plasma, iv, 5 mg/kg, 5 mg/kg i.v. bolus, individual animals
[7] = plasma, iv, 20 mg/kg, 20 mg/kg i.v. bolus, MEAN
[8] = plasma, iv, 20 mg/kg, 20 mg/kg i.v. bolus, individual animals
[9] = plasma, iv, 50 mg/kg, 50 mg/kg i.v. bolus, MEAN
[10] = plasma, iv, 50 mg/kg, 50 mg/kg i.v. bolus, individual animals

SMILES: Cn1c(COP(=O)(NCCBr)NCCBr)cnc1[N+](=O)[O-] [TH302]
- effect on anti tumor efficacy of radiation [1]: enhances the anti cancer effect of X-ray; also recorded: enhances the anti tumor efficacy of radiation
- clearance ([2]; in vivo, iv, 1 mg/kg, 1 mg/kg i.v. bolus, MEAN, read-out: CL (converted)): 78.2 mL/min/kg
- Vd ([2]; in vivo, iv, 1 mg/kg, 1 mg/kg i.v. bolus, MEAN): 2.05 L/kg
- clearance ([2]; in vivo, iv, 5 mg/kg, 5 mg/kg i.v. bolus, MEAN, read-out: CL (converted)): 102 mL/min/kg
- Vd ([2]; in vivo, iv, 5 mg/kg, 5 mg/kg i.v. bolus, MEAN): 5.09 L/kg
- Vd ([2]; in vivo, iv, 5 mg/kg, 5 mg/kg i.v. bolus, individual animals): 2.51 L/kg
- clearance ([2]; in vivo, iv, 20 mg/kg, 20 mg/kg i.v. bolus, MEAN, read-out: CL (converted)): 102 mL/min/kg
- Vd ([2]; in vivo, iv, 20 mg/kg, 20 mg/kg i.v. bolus, MEAN): 2.29 L/kg
- clearance ([2]; in vivo, iv, 20 mg/kg, 20 mg/kg i.v. bolus, individual animals, read-out: CL (converted)): 98.5 mL/min/kg
- Vd ([2]; in vivo, iv, 20 mg/kg, 20 mg/kg i.v. bolus, individual animals): 2.29 L/kg
- clearance ([2]; in vivo, iv, 50 mg/kg, 50 mg/kg i.v. bolus, MEAN, read-out: CL (converted)): 98.5 mL/min/kg
- Vd ([2]; in vivo, iv, 50 mg/kg, 50 mg/kg i.v. bolus, MEAN): 1.67 L/kg
- half-life ([2]; in vivo, iv, 1 mg/kg i.v. bolus, MEAN, read-out: T1/2 (converted)): 2.03 h
- half-life ([2]; in vivo, iv, 5 mg/kg i.v. bolus, MEAN, read-out: T1/2 (converted)): 3.75 h
- half-life ([2]; in vivo, iv, 20 mg/kg i.v. bolus, MEAN, read-out: T1/2 (converted)): 4.37 h
- half-life ([2]; in vivo, iv, 50 mg/kg i.v. bolus, MEAN, read-out: T1/2 (converted)): 1.32 h
- bioavailability ([2]; in vivo, po, 100 mg/kg p.o., read-out: absolute oral bioavailability): 77.3%
- half-life ([2]; in vivo, po, after p.o. dosing 100 mg/kg, read-out: terminal plasma t1/2 (converted)): 1.59 h
- AUC(0-inf) [2, 3]: 221 ng·h/mL
- AUC(0-t) [2, 3]: 217 ng·h/mL
- Cmax [2, 3]: 802 ng/mL
- MRT [2, 3]: 0.89 h
- AUC(0-inf) [2, 4]: 178 ng·h/mL
- AUC(0-t) [2, 4]: 175 ng·h/mL
- clearance ([2]; plasma, iv, 1 mg/kg, 1 mg/kg i.v. bolus, individual animals, read-out: CL (converted)): 93.3 mL/min/kg
- Cmax [2, 4]: 683 ng/mL
- MRT [2, 4]: 0.95 h
- half-life ([2]; plasma, iv, 1 mg/kg, 1 mg/kg i.v. bolus, individual animals, read-out: T1/2 (converted)): 1.75 h
- Vd [2, 4]: 1.83 L/kg
- AUC(0-inf) [2, 5]: 826 ng·h/mL
- AUC(0-t) [2, 5]: 799 ng·h/mL
- Cmax [2, 5]: 3820 ng/mL
- MRT [2, 5]: 0.9 h
- AUC(0-inf) [2, 6]: 732 ng·h/mL
- AUC(0-t) [2, 6]: 730 ng·h/mL
- clearance ([2]; plasma, iv, 5 mg/kg, 5 mg/kg i.v. bolus, individual animals, read-out: CL (converted)): 114 mL/min/kg
- Cmax [2, 6]: 3840 ng/mL
- Vd [2, 6]: 7.68 L/kg
- AUC(0-inf) [2, 7]: 3310 ng·h/mL
- AUC(0-t) [2, 7]: 3270 ng·h/mL
- Cmax [2, 7]: 13500 ng/mL
- MRT [2, 7]: 0.59 h
- AUC(0-inf) [2, 8]: 2920 ng·h/mL
- AUC(0-t) [2, 8]: 2830 ng·h/mL
- clearance ([2]; plasma, iv, 20 mg/kg, 20 mg/kg i.v. bolus, individual animals, read-out: CL (converted)): 114 mL/min/kg
- Cmax [2, 8]: 13400 ng/mL
- Vd [2, 8]: 2.89 L/kg
- AUC(0-inf) [2, 9]: 8470 ng·h/mL
- AUC(0-t) [2, 9]: 8460 ng·h/mL
- Cmax [2, 9]: 35500 ng/mL
- MRT [2, 9]: 0.29 h
- AUC(0-inf) [2, 10]: 8830 ng·h/mL
- AUC(0-t) [2, 10]: 8830 ng·h/mL
- clearance ([2]; plasma, iv, 50 mg/kg, 50 mg/kg i.v. bolus, individual animals, read-out: CL (converted)): 94.3 mL/min/kg
- Cmax [2, 10]: 37200 ng/mL
- MRT [2, 10]: 0.29 h
- Vd [2, 10]: 1.63 L/kg
- AUC ([2]; plasma, iv, 50 mg/kg, i.v. bolus, up to 8 mg/kg human equivalent daily dose, read-out: exposure of TH302, AUC): ~8500 ng·h/mL
- clearance ([2]; plasma, iv, i.v. dose 1-50 mg/kg, range of means, read-out: Mean Cl): 78.2 to 102 mL/min/kg
